Laboratory results taken from patent US10307357B2, “Prebiotic oral care compositions containing an alkyl glycoside” (COLGATE-PALMOLIVE COMPANY, priority 2013, dated 2019).

What was measured:
Type in all cases: cell-based
[1] = tested on: beneficial oral bacteria and pathogenic oral bacteria; test: Twenty-four hour biofilm growth, conclusion over the panel; conditions: threshold 1.6
Description: Substrates that were able to increase the biofilm mass of at least one of the above beneficial bacteria while not or only minimally increasing the biofilm mass of the pathogenic bacteria are considered to be prebiotic compounds. The increase in biofilm formation of the tested bacteria in response to selected glycosides (β-methyl-D-galactoside and α-methyl-D-galactoside) was investigated by setting up biofilm growth assays in a nutritionally rich medium (brain heart infusion broth (BHI), Oxoid), over 24 hours. Late exponential growth phase liquid cultures were prepared by transferring the respective bacterium from blood agar plates to BHI and overnight incubation at 37° C. in an anaerobic atmosphere for A. viscosus, V. parvula, P. gingivalis, P. intermedia, T. forsythia, A. naeslundii, and C. sputigena, and in a 5% CO2 environment for S. salivarius, S. sanguinis, S. mitis, A. actinomycetemcomitans, S. mutans, and S. gordonii. […] Quantification of the stained biofilm was performed by measuring the absorbance at 630 nm using a Multiskan Ascent microplate reader (Thermo Scientific). […] For each day and for each combination, the average (mean) of the values obtained (as detailed above) for the four technical replicas was calculated to provide a single value for each combination on each day. […]

Capnocytophaga sputigena = test: Twenty-four hour optical density growth in BHI; conditions: over 24 hours, control = 1
Procedure: (§1) The extent of growth of the tested bacteria in response to selected glycosides (β-methyl-D-galactoside and α-methyl-D-galactoside) was investigated by setting up growth curves in a nutritionally rich medium (brain heart infusion broth (BHI), Oxoid), over 24 hours. Late exponential growth phase liquid cultures were prepared by transferring the respective bacterium from blood agar plates to BHI and overnight incubation at 37° C. in an anaerobic atmosphere for A. viscosus, V. parvula, F. nucleatum, P. gingivalis, P. intermedia, T. forsythia, A. naeslundii, and C. sputigena, and in a 5% CO2 environment for S. salivarius, S. sanguinis, S. mitis, A. actinomycetemcomitans, S. mutans, S. sobrinus and S. gordonii. Overnight cultures were transferred to BHI and adjusted to a concentration of 1×10^7 CFU/ml (colony forming units per ml) by measuring the optical density at 600 nm (OD600) (BioRad SmartSpec 3000). For each strain, 200 μl of the bacterial suspension was added to a 96-well plate containing 20 μl of the respective glycosides. Final concentrations of the glycosides were set to 5, 10, 20 and 25 μmol/ml. […] Plates were incubated as previously described. For each combination of bacterium/glycoside, and for each of their respective controls (i.e. the particular bacterium in the nutritionally rich medium with no glycoside), the optical density was measured at 630 nm (OD630) at 0 h and 24 h (Thermo Scientific Multiskan Ascent). Additionally, the OD630 for combinations of bacterium/glycosides grown in a 5% CO2 environment were also measured every hour between 0 h and 9 h. […] The experiment was carried out on three different days (thus providing 3 biological replicas) and on each day the experiment was carried out in quadruple (thus providing 4 technical replicas) for each combination of bacterium with glycoside and for each control. For each day and for each combination, the average (mean) of the values obtained (as detailed above) for the four technical replicas was calculated to provide a single value for each combination on each day. The values shown in Tables 5 to 6, below, are the average (mean) of the three single values obtained for each combination of bacterium with glycoside (α-Methyl-D-Galactoside=α-MDG; β-Methyl-D-Galactoside=β-MDG).

Streptococcus mitis = test: Twenty-four hour optical density growth in BHI; conditions: over 24 hours, control = 1
Procedure: as §1

Streptococcus sanguinis = test: Twenty-four hour optical density growth in BHI; conditions: over 24 hours, control = 1
Procedure: as §1

Porphyromonas gingivalis = test: Twenty-four hour optical density growth in BHI; conditions: over 24 hours, control = 1
Procedure: as §1

Actinomyces naeslundii = test: Twenty-four hour optical density growth in BHI; conditions: over 24 hours, control = 1
Procedure: as §1

Prevotella intermedia = test: Twenty-four hour optical density growth in BHI; conditions: over 24 hours, control = 1
Procedure: as §1

Streptococcus sobrinus = test: Twenty-four hour optical density growth in BHI; conditions: over 24 hours, control = 1
Procedure: as §1

Actinomyces viscosus = test: Twenty-four hour optical density growth in BHI; conditions: over 24 hours, control = 1
Procedure: as §1

Streptococcus gordonii = test: Twenty-four hour optical density growth in BHI; conditions: over 24 hours, control = 1
Procedure: as §1

Fusobacterium nucleatum = test: Twenty-four hour optical density growth in BHI; conditions: over 24 hours, control = 1
Procedure: as §1

## CO[C@H]1O[C@H](CO)[C@H](O)[C@H](O)[C@H]1O [α-methyl-D-galactoside]
[1]; at concentrations of 5, 10, and 20 μmol/ml
  prebiotic effect (biofilm growth), in words: exhibited prebiotic effects
Capnocytophaga sputigena; 5 μmol/ml
  maximal OD630 divided by control (extent of growth): 0.8698
Capnocytophaga sputigena; 10 μmol/ml
  maximal OD630 divided by control (extent of growth): 0.8897
Capnocytophaga sputigena; 20 μmol/ml
  maximal OD630 divided by control (extent of growth): 0.8728
Capnocytophaga sputigena; 25 μmol/ml
  maximal OD630 divided by control (extent of growth): 0.8809
Streptococcus mitis; 5 μmol/ml
  maximal OD630 divided by control (extent of growth): 0.9303
Streptococcus mitis; 10 μmol/ml
  maximal OD630 divided by control (extent of growth): 0.9337
Streptococcus mitis; 20 μmol/ml
  maximal OD630 divided by control (extent of growth): 0.8843
Streptococcus mitis; 25 μmol/ml
  maximal OD630 divided by control (extent of growth): 0.8855
Streptococcus sanguinis; 5 μmol/ml
  maximal OD630 divided by control (extent of growth): 0.9521
Streptococcus sanguinis; 10 μmol/ml
  maximal OD630 divided by control (extent of growth): 0.9343
Streptococcus sanguinis; 20 μmol/ml
  maximal OD630 divided by control (extent of growth): 0.8872
Streptococcus sanguinis; 25 μmol/ml
  maximal OD630 divided by control (extent of growth): 0.9294
Porphyromonas gingivalis; 5 μmol/ml
  maximal OD630 divided by control (extent of growth): 0.9298
Porphyromonas gingivalis; 10 μmol/ml
  maximal OD630 divided by control (extent of growth): 0.9747
Porphyromonas gingivalis; 20 μmol/ml
  maximal OD630 divided by control (extent of growth): 0.9132
Porphyromonas gingivalis; 25 μmol/ml
  maximal OD630 divided by control (extent of growth): 0.9353
Actinomyces naeslundii; 5 μmol/ml
  maximal OD630 divided by control (extent of growth): 0.9762
Actinomyces naeslundii; 10 μmol/ml
  maximal OD630 divided by control (extent of growth): 0.9994
Actinomyces naeslundii; 20 μmol/ml
  maximal OD630 divided by control (extent of growth): 0.9595
Actinomyces naeslundii; 25 μmol/ml
  maximal OD630 divided by control (extent of growth): 0.9481
Prevotella intermedia; 5 μmol/ml
  maximal OD630 divided by control (extent of growth): 0.9203
Prevotella intermedia; 10 μmol/ml
  maximal OD630 divided by control (extent of growth): 0.9043
Prevotella intermedia; 20 μmol/ml
  maximal OD630 divided by control (extent of growth): 0.8637
Prevotella intermedia; 25 μmol/ml
  maximal OD630 divided by control (extent of growth): 0.8498
Streptococcus sobrinus; 5 μmol/ml
  maximal OD630 divided by control (extent of growth): 0.9005
Streptococcus sobrinus; 10 μmol/ml
  maximal OD630 divided by control (extent of growth): 0.8975
Streptococcus sobrinus; 20 μmol/ml
  maximal OD630 divided by control (extent of growth): 0.8858
Streptococcus sobrinus; 25 μmol/ml
  maximal OD630 divided by control (extent of growth): 0.9052
Actinomyces viscosus; 5 μmol/ml
  maximal OD630 divided by control (extent of growth): 0.6181
Actinomyces viscosus; 10 μmol/ml
  maximal OD630 divided by control (extent of growth): 0.5756
Actinomyces viscosus; 20 μmol/ml
  maximal OD630 divided by control (extent of growth): 0.4433
Actinomyces viscosus; 25 μmol/ml
  maximal OD630 divided by control (extent of growth): 0.4453
Streptococcus gordonii; 5 μmol/ml
  maximal OD630 divided by control (extent of growth): 0.9997
Streptococcus gordonii; 10 μmol/ml
  maximal OD630 divided by control (extent of growth): 0.9966
Streptococcus gordonii; 20 μmol/ml
  maximal OD630 divided by control (extent of growth): 1.0089
Streptococcus gordonii; 25 μmol/ml
  maximal OD630 divided by control (extent of growth): 1.0255
Fusobacterium nucleatum; 5 μmol/ml
  maximal OD630 divided by control (extent of growth): 0.8598
Fusobacterium nucleatum; 10 μmol/ml
  maximal OD630 divided by control (extent of growth): 0.8398
Fusobacterium nucleatum; 20 μmol/ml
  maximal OD630 divided by control (extent of growth): 0.7917
Fusobacterium nucleatum; 25 μmol/ml
  maximal OD630 divided by control (extent of growth): 0.7921

## CO[C@@H]1O[C@H](CO)[C@H](O)[C@H](O)[C@H]1O [β-methyl-D-galactoside]
[1]; at concentrations of 5, 10, 20 and 25 μmol/ml
  prebiotic effect (biofilm growth), in words: exhibited prebiotic effects
Capnocytophaga sputigena; 5 μmol/ml
  maximal OD630 divided by control (extent of growth): 0.8841
Capnocytophaga sputigena; 10 μmol/ml
  maximal OD630 divided by control (extent of growth): 0.8633
Capnocytophaga sputigena; 20 μmol/ml
  maximal OD630 divided by control (extent of growth): 0.8645
Capnocytophaga sputigena; 25 μmol/ml
  maximal OD630 divided by control (extent of growth): 0.8575
Streptococcus mitis; 5 μmol/ml
  maximal OD630 divided by control (extent of growth): 0.8435
Streptococcus mitis; 10 μmol/ml
  maximal OD630 divided by control (extent of growth): 0.8256
Streptococcus mitis; 20 μmol/ml
  maximal OD630 divided by control (extent of growth): 0.9114
Streptococcus mitis; 25 μmol/ml
  maximal OD630 divided by control (extent of growth): 0.8116
Streptococcus sanguinis; 5 μmol/ml
  maximal OD630 divided by control (extent of growth): 0.8787
Streptococcus sanguinis; 10 μmol/ml
  maximal OD630 divided by control (extent of growth): 0.8540
Streptococcus sanguinis; 20 μmol/ml
  maximal OD630 divided by control (extent of growth): 0.8629
Streptococcus sanguinis; 25 μmol/ml
  maximal OD630 divided by control (extent of growth): 0.8842
Porphyromonas gingivalis; 5 μmol/ml
  maximal OD630 divided by control (extent of growth): 0.8852
Porphyromonas gingivalis; 10 μmol/ml
  maximal OD630 divided by control (extent of growth): 0.9738
Porphyromonas gingivalis; 20 μmol/ml
  maximal OD630 divided by control (extent of growth): 0.9498
Porphyromonas gingivalis; 25 μmol/ml
  maximal OD630 divided by control (extent of growth): 0.9364
Actinomyces naeslundii; 5 μmol/ml
  maximal OD630 divided by control (extent of growth): 0.9746
Actinomyces naeslundii; 10 μmol/ml
  maximal OD630 divided by control (extent of growth): 0.9516
Actinomyces naeslundii; 20 μmol/ml
  maximal OD630 divided by control (extent of growth): 0.9705
Actinomyces naeslundii; 25 μmol/ml
  maximal OD630 divided by control (extent of growth): 0.9802
Prevotella intermedia; 5 μmol/ml
  maximal OD630 divided by control (extent of growth): 0.9000
Prevotella intermedia; 10 μmol/ml
  maximal OD630 divided by control (extent of growth): 0.8909
Prevotella intermedia; 20 μmol/ml
  maximal OD630 divided by control (extent of growth): 0.9071
Prevotella intermedia; 25 μmol/ml
  maximal OD630 divided by control (extent of growth): 0.9102
Streptococcus sobrinus; 5 μmol/ml
  maximal OD630 divided by control (extent of growth): 0.8914
Streptococcus sobrinus; 10 μmol/ml
  maximal OD630 divided by control (extent of growth): 0.8818
Streptococcus sobrinus; 20 μmol/ml
  maximal OD630 divided by control (extent of growth): 0.9110
Streptococcus sobrinus; 25 μmol/ml
  maximal OD630 divided by control (extent of growth): 0.9111
Actinomyces viscosus; 5 μmol/ml
  maximal OD630 divided by control (extent of growth): 0.6467
Actinomyces viscosus; 10 μmol/ml
  maximal OD630 divided by control (extent of growth): 0.6333
Actinomyces viscosus; 20 μmol/ml
  maximal OD630 divided by control (extent of growth): 0.6745
Actinomyces viscosus; 25 μmol/ml
  maximal OD630 divided by control (extent of growth): 0.6464
Streptococcus gordonii; 5 μmol/ml
  maximal OD630 divided by control (extent of growth): 0.9811
Streptococcus gordonii; 10 μmol/ml
  maximal OD630 divided by control (extent of growth): 0.9760
Streptococcus gordonii; 20 μmol/ml
  maximal OD630 divided by control (extent of growth): 0.9954
Streptococcus gordonii; 25 μmol/ml
  maximal OD630 divided by control (extent of growth): 1.0054
Fusobacterium nucleatum; 5 μmol/ml
  maximal OD630 divided by control (extent of growth): 0.8134
Fusobacterium nucleatum; 10 μmol/ml
  maximal OD630 divided by control (extent of growth): 0.8181
Fusobacterium nucleatum; 20 μmol/ml
  maximal OD630 divided by control (extent of growth): 0.8161
Fusobacterium nucleatum; 25 μmol/ml
  maximal OD630 divided by control (extent of growth): 0.8213
